# Measured values from publication PMC8751750, “Effect of using different co-ligands during ^99mTc-labeling of J18 peptide on SK-MES-1 cell binding and tumor targeting” (Iranian Journal of Basic Medical Sciences, 2021).
# Entries after “also recorded” stand apart in the source; their conditions may differ. Peptide text beside a SMILES is read from it.
# Experiments:
# A-549 cells = conditions: previously reported, listed as 99mTc-HYNIC-(Ser)3-J18 (Tricine); cited from earlier work
# Description: Table 1 Overview of affinity binding ^99mTc-HYNIC-(Ser)3-J18 on SK-MES-1 vs A-549 cell line | column: A-549 / Tricine; A-549 / tricine/EDDA
# SK-MES-1 cells [1] = assay: Specific binding (blocking with unlabeled peptide) on SK-MES-1 cells; parameters: species or system human
# Experimental: (§1) The in vitro receptor binding of the^ 99mTc-labeled peptide was evaluated using SK-MES-1 a human lung squamous cell carcinoma, SKOV-3 human ovarian carcinoma, and A-549 human lung adenocarcinoma epithelial and MCF-7 human breast cancer cell lines. All cell lines were kept at 37 °C in a 5% CO2 incubator and were maintained in Dulbecco’s DMEM-high glucose supplemented with 10% FBS. Cells were plated in 24-well plates at a density of 4×10^5 cells/well in 1 ml of complete medium and incubated for 24 hr to allow in cells to settle. Following a wash with cold serum-free media or PBS, 40 nM radiolabeled peptides in the full medium were given to the cells, which were then incubated at 37 °C for 2 hr. Finally, cells in culture plates were trypsinized and released, and radioactivity in the cells was measured. To determine specific versus nonspecific binding, SK-MES-1 cells were seeded into 12-well plates at a density of 5×10^5 cells/well and incubated with unlabeled peptides at a concentration 500-fold higher than the labeled peptide for 20 min at 37 °C, followed by the addition of the radiolabeled peptide to the wells. These cells were incubated for 2 hr at 37 °C in a humidified incubator.
# [2] = Biodistribution in normal mice; format: in vivo; conditions: i.v. 1 μg in 100 μl (18.5 MBq), mean±SD, n=4; for Intestine uptake (with contents): normal female NMRI mice
# Experimental: All animal investigations were approved by Mazandaran University of Medical Sciences Research and Ethical Committee in Sari, Iran. Twelve normal female NMRI mice (20–30 g) were randomly divided into three groups of four. 1 μg of (^99mTc) Tc –HYNIC–J18 peptide in 100 μl of buffer (18.5 MBq) was injected into the tail vein. All animals were sacrificed one, four, and twenty-four hours following radiolabeled peptide injection. Mice were euthanized with an appropriate dose of ketamine/xylazine (Sigma, USA) diluted with sterile water (1:3 v/v). Following deep anesthesia, blood was extracted by heart puncture with a 1-mL syringe washed with diluted heparin. Blood, liver, spleen, salivary gland, stomach, kidney, muscle, and bone samples were dissected and weighed, and radioactivity was measured. Except for the intestines, which were computed as a percentage of the injected dose per gram tissue (percent ID/g), the tissue uptake data was calculated as a percentage of the administered dose per total sample.
# [3] = tested on: SK-MES-1, A-549, SKOV-3 and MCF-7 cells; assay: In vitro receptor binding of radiolabeled peptides on four cell lines; parameters: species or system human; conditions: 2 hr at 37 °C
# Experimental: as §1
# SK-MES-1 cells [4] = assay: Saturation binding assay on SK-MES-1 cells; parameters: species or system human
# Experimental: The affinities of (^99mTc) Tc-HYNIC-peptides were determined utilizing a saturation binding experiment with cultivated cells in vitro for determination of the dissociation constant as KD and the number of binding sites per cell (Bmax). SK-MES-1 cells were incubated for 2 hr at 37 °C with increasing concentrations of (^99mTc) Tc- HYNIC- peptides (0.1, 0.5, 1, 2.5, 5, 25, and 50 nM). One dish served as a blocking sample, and it was immersed in a blocking solution containing a 500-fold excess of the non-labeled peptide. For each concentration, three dishes were utilized. Following incubation, the media was withdrawn, and the cells were trypsinized and collected for Gamma counter activity measurement. Prism 5 software (Ver. 5.0) was used to examine the particular binding data using nonlinear regression.
smiles,measurement,setting,value
"CC(C)C[C@H](NC(=O)[C@H](CO)NC(=O)[C@H](CCCNC(=N)N)NC(=O)[C@H](CO)NC(=O)[C@H](CO)NC(=O)[C@H](CO)NC(=O)c1ccc(NN)nc1)C(=O)N[C@@H](Cc1c[nH]c2ccccc12)C(=O)N[C@@H](CO)C(=O)N[C@@H](CC(=O)O)C(=O)N[C@@H](Cc1ccccc1)C(=O)N[C@@H](Cc1ccc(O)cc1)C(=O)N[C@@H](C)C(=O)N[C@@H](CO)C(=O)N[C@@H](C)C(=O)N[C@@H](CO)C(=O)N[C@@H](CCCNC(=N)N)C(=O)NCC(=O)N1CCC[C@H]1C(=O)O [Peptide 1, (^99mTc)Tc-HYNIC-(Ser)3-J18 with tricine, metal not drawn] (HELM PEPTIDE1{[NNc1ccc(C(=O)[*:2])cn1].S.S.S.R.S.L.W.S.D.F.Y.A.S.A.S.R.G.P}$$$$V2.0; C-terminus assumed)",Kd,A-549 cells,4.1 ± 1.3 nM
same,reduction of binding by pre-saturation with unlabeled J18 peptide,"SK-MES-1 cells [1]; 500-fold unlabeled peptide 20 min at 37 °C, then radiolabeled peptide 2 hr at 37 °C, listed as 99mTc-peptide 1",~11.5 fold
same,specific binding,"SK-MES-1 cells [1]; abstract, listed as 99mTc-peptide 1",11.5 fold
same,"specific binding to SK-MES-1, in words",SK-MES-1 cells [1]; listed as 99mTc-J18 peptide with tricine co-ligand,higher specific binding to SK-MES-1 in comparison with tricine/EDDA coligand
same,"specific binding to SK-MES-1, in words",SK-MES-1 cells [1]; listed as 99mTc-peptide 1,high specific binding; also recorded: high specificity
same,Intestine uptake (with contents),[2]; 4 hr,5.85±2.14 percentage of injected dose per whole sample
same,Intestine uptake (with contents),[2]; 24 hr,1.11±0.38 percentage of injected dose per whole sample
same,tissue uptake at 4 h,"[2]; female, NMRI, mouse, spleen, iv, 1 ug, total radioactivity, 4 hr",2.24 ± 1.81 %ID/g
same,"cellular affinity, in words",[3]; 40 nM radiolabeled peptide,strongest cellular affinity for the SK-MES-1 cell line
same,"receptor binding affinity (as CPM/Cells value), tricine vs tricine/EDDA as coligand","[3]; higher than tricine/EDDA as coligand, 40 nM",2.5 fold
same,Bmax,"SK-MES-1 cells [4]; Figure 4, saturation binding, 2 hr at 37 °C, listed as 99mTc-(tricine)-HYNIC-(Ser)3-J18",(2.2±0.2)·10^4 binding sites/cell
same,"binding affinity for SK-MES-1, in words",SK-MES-1 cells [4]; listed as 99mTc-peptide 1,high binding affinity; also recorded: good receptor-binding affinity
same,Kd,"SK-MES-1 cells [4]; saturation binding, 0.1-50 nM, 2 hr at 37 °C, blocking with 500-fold excess non-labeled peptide, three dishes per concentration, Prism 5 nonlinear regression, listed as 99mTc-HYNIC-(Ser)3-J18 (Tricine)",3.1 ± 0.3 nM
same,Bmax,"SK-MES-1 cells [4]; saturation binding, 0.1-50 nM, 2 hr at 37 °C, three dishes per concentration, Prism 5 nonlinear regression, listed as 99mTc-HYNIC-(Ser)3-J18 (Tricine)",(2.2± 0.2)×10 ^4 binding sites/cell
